According to PubChem BioAssay (NCI):
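Step 1: Grow cells in 96-well plates. Step 2: Expose to compound for 48 hours at 5 concentrations. Step 3: Interpolate endpoints linearly; if unreached, use highest concentration. GI50 marks 50% less growth. The concentration for full growth arrest is given as TGI.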

What was measured:
Experiment in all cases: NCI tumour cell line growth inhibition, 48 h
OVCAR-5 ovarian = test system: OVCAR-5 ovarian
SF-295 CNS = test system: SF-295 CNS
NCI-H226 lung = test system: NCI-H226 lung
ACHN renal = test system: ACHN renal
LOX IMVI melanoma = test system: LOX IMVI melanoma
RPMI-8226 leukemia = test system: RPMI-8226 leukemia
UACC-62 melanoma = test system: UACC-62 melanoma
A498 renal = test system: A498 renal
UACC-257 melanoma = test system: UACC-257 melanoma
SK-OV-3 ovarian = test system: SK-OV-3 ovarian

SMILES: COc1cc(OC)cc(-c2n/c(=C\c3c(O)[nH]c4ccc(Cl)cc34)cc3c2=Nc2ccccc2-3)c1
- GI50 (OVCAR-5 ovarian): 20.5 µM
- TGI (OVCAR-5 ovarian): 63.8 µM
- GI50 (SF-295 CNS): 2.32 µM
- TGI (SF-295 CNS): 6.11 µM
- GI50 (NCI-H226 lung): 22.8 µM
- TGI (NCI-H226 lung): 59.8 µM
- GI50 (ACHN renal): 5.37 µM
- TGI (ACHN renal): 20.7 µM
- GI50 (LOX IMVI melanoma): 1.92 µM
- TGI (LOX IMVI melanoma): 4.34 µM
- GI50 (RPMI-8226 leukemia): 16.3 µM
- TGI (RPMI-8226 leukemia): > 100 µM
- GI50 (UACC-62 melanoma): 16.9 µM
- TGI (UACC-62 melanoma): 35.2 µM
- GI50 (A498 renal): 30.9 µM
- TGI (A498 renal): > 100 µM
- GI50 (UACC-257 melanoma): > 100 µM
- TGI (UACC-257 melanoma): > 100 µM
- GI50 (SK-OV-3 ovarian): 10.2 µM
- TGI (SK-OV-3 ovarian): 26 µM

SMILES: C/C(=C\Cc1cc(O)ccc1O)CCc1c(C)c(O)c(O)c(C=O)c1C
- TGI (SF-295 CNS): 91.5 µM
- TGI (NCI-H226 lung): 98 µM
- TGI (ACHN renal): 52.8 µM
- TGI (RPMI-8226 leukemia): 80.3 µM
- TGI (A498 renal): > 100 µM
- TGI (SK-OV-3 ovarian): 95.7 µM

SMILES: COc1cc(/C=N\NC(=O)C[N+](C)(C)C)cc(OC)c1OC
- TGI (OVCAR-5 ovarian): > 10 µM
- TGI (SF-295 CNS): > 10 µM
- TGI (ACHN renal): > 10 µM
- TGI (LOX IMVI melanoma): > 10 µM
- TGI (RPMI-8226 leukemia): > 10 µM
- TGI (UACC-62 melanoma): > 10 µM
- TGI (UACC-257 melanoma): > 10 µM
- TGI (SK-OV-3 ovarian): > 10 µM

SMILES: C[C@@H]1CC[C@@H](C)[C@](C)(CCc2ccoc2)C/C=C\C=C/1C(=O)O
- TGI (OVCAR-5 ovarian): > 50 µM
- TGI (SF-295 CNS): > 50 µM
- TGI (NCI-H226 lung): > 50 µM
- TGI (ACHN renal): > 50 µM
- TGI (LOX IMVI melanoma): > 50 µM
- TGI (UACC-62 melanoma): > 50 µM
- TGI (A498 renal): > 50 µM
- TGI (UACC-257 melanoma): > 50 µM
- TGI (SK-OV-3 ovarian): > 50 µM

SMILES: CC1C2CC(C/C2=N/O)C1(C)C (stereo not drawn)
- TGI (OVCAR-5 ovarian): > 100 µM
- TGI (SF-295 CNS): > 100 µM
- TGI (NCI-H226 lung): > 100 µM
- TGI (ACHN renal): > 100 µM
- TGI (UACC-62 melanoma): > 100 µM
- TGI (A498 renal): > 100 µM
- TGI (UACC-257 melanoma): > 100 µM
- TGI (SK-OV-3 ovarian): > 100 µM

SMILES: CC(=O)CC(C)(C)NC(=O)[C@@]1(O)CC[C@H]2[C@@H]3CCC4=CC(=O)CC[C@@H]4[C@H]3CC[C@@]21C
- TGI (OVCAR-5 ovarian): > 100 µM
- TGI (SF-295 CNS): > 100 µM
- TGI (NCI-H226 lung): > 100 µM
- TGI (ACHN renal): > 100 µM
- TGI (LOX IMVI melanoma): > 100 µM
- TGI (RPMI-8226 leukemia): > 100 µM
- TGI (UACC-62 melanoma): > 100 µM
- TGI (A498 renal): > 100 µM
- TGI (UACC-257 melanoma): > 100 µM
- TGI (SK-OV-3 ovarian): > 100 µM

SMILES: O=C(N/N=C/c1ccc(Cl)cc1)c1cc(I)cc(I)c1O
- TGI (OVCAR-5 ovarian): > 100 µM
- TGI (SF-295 CNS): > 100 µM
- TGI (NCI-H226 lung): > 100 µM
- TGI (ACHN renal): > 100 µM
- TGI (LOX IMVI melanoma): > 100 µM
- TGI (RPMI-8226 leukemia): > 100 µM
- TGI (A498 renal): > 100 µM
- TGI (UACC-257 melanoma): > 100 µM
- TGI (SK-OV-3 ovarian): > 100 µM

SMILES: O=C1CCC2(O)C3Cc4ccc(Oc5nnnn5-c5ccccc5)c5c4C2(CCN3CC2CC2)C1O5 (stereo not drawn)
- TGI (OVCAR-5 ovarian): > 100 µM
- TGI (SF-295 CNS): > 100 µM
- TGI (ACHN renal): > 100 µM
- TGI (LOX IMVI melanoma): 84.6 µM
- TGI (RPMI-8226 leukemia): > 100 µM
- TGI (UACC-62 melanoma): 76 µM
- TGI (A498 renal): 90.1 µM
- TGI (UACC-257 melanoma): 45.7 µM
- TGI (SK-OV-3 ovarian): > 100 µM

SMILES: C/C=C/[C@H]1O[C@@](O)([C@@H](C)[C@H](O)[C@H](C)[C@H]2OC(=O)/C(OC)=C/C(C)=C/[C@@H](C)[C@@H](O)[C@@H](CC)[C@@H](O)[C@H](C)C/C(C)=C/C=C/[C@@H]2OC)C[C@H](OC2CC(O)C(OC(N)=O)C(C)O2)[C@@H]1C (stereo partly drawn)
- TGI (OVCAR-5 ovarian): 25.7 µM
- TGI (SF-295 CNS): 0.893 µM
- TGI (ACHN renal): 16.7 µM
- TGI (LOX IMVI melanoma): 0.0614 µM
- TGI (RPMI-8226 leukemia): 0.205 µM
- TGI (UACC-62 melanoma): 13.2 µM
- TGI (A498 renal): 33.1 µM
- TGI (UACC-257 melanoma): 0.568 µM
- TGI (SK-OV-3 ovarian): 25.4 µM

SMILES: CCNc1ncnc2c1nnn2CC
- TGI (SF-295 CNS): > 100 µM
- TGI (NCI-H226 lung): > 100 µM
- TGI (ACHN renal): > 100 µM
- TGI (LOX IMVI melanoma): > 100 µM
- TGI (RPMI-8226 leukemia): > 100 µM
- TGI (UACC-62 melanoma): > 100 µM
- TGI (A498 renal): > 100 µM
- TGI (UACC-257 melanoma): > 100 µM
- TGI (SK-OV-3 ovarian): > 100 µM

SMILES: Nc1ccc(-c2nc3ccc(F)cc3s2)cc1
- GI50 (OVCAR-5 ovarian): 27.2 µM
- TGI (OVCAR-5 ovarian): 73.6 µM
- TGI (SF-295 CNS): 60.7 µM
- GI50 (NCI-H226 lung): 47 µM
- TGI (NCI-H226 lung): > 100 µM
- TGI (ACHN renal): 66.6 µM
- TGI (LOX IMVI melanoma): > 100 µM
- TGI (RPMI-8226 leukemia): 91.7 µM
- TGI (UACC-62 melanoma): 31.3 µM
- TGI (A498 renal): 80.3 µM
- TGI (UACC-257 melanoma): > 100 µM

SMILES: CNC(=S)N/N=C(\C)c1nc2ncccc2[nH]1
- TGI (OVCAR-5 ovarian): > 100 µM
- TGI (SF-295 CNS): > 100 µM
- TGI (NCI-H226 lung): > 90.9 µM
- TGI (ACHN renal): > 100 µM
- TGI (LOX IMVI melanoma): > 100 µM
- TGI (RPMI-8226 leukemia): > 100 µM
- TGI (A498 renal): > 100 µM
- TGI (UACC-257 melanoma): > 100 µM
- TGI (SK-OV-3 ovarian): > 100 µM

SMILES: CC(=O)c1ccc(N2CCN(C3=CC(=O)c4c(O)ccc(O)c4C3=O)CC2)cc1
- TGI (OVCAR-5 ovarian): > 100 µM
- TGI (SF-295 CNS): > 100 µM
- TGI (RPMI-8226 leukemia): > 100 µM
- TGI (UACC-62 melanoma): > 100 µM
- TGI (A498 renal): > 100 µM
- TGI (UACC-257 melanoma): > 100 µM

SMILES: Clc1nc(Nc2nc3ccccc3[nH]2)nc(Cl)c1Cc1ccccc1
- TGI (OVCAR-5 ovarian): > 100 µM
- TGI (SF-295 CNS): > 100 µM
- TGI (NCI-H226 lung): > 100 µM
- TGI (ACHN renal): > 100 µM
- TGI (RPMI-8226 leukemia): > 100 µM
- TGI (UACC-62 melanoma): > 100 µM
- TGI (A498 renal): > 100 µM
- TGI (UACC-257 melanoma): > 100 µM
- TGI (SK-OV-3 ovarian): > 100 µM

SMILES: Cc1ccnc(NC(=S)Nc2cccc(Cl)c2)c1
- TGI (OVCAR-5 ovarian): > 100 µM
- TGI (SF-295 CNS): > 100 µM
- TGI (LOX IMVI melanoma): > 100 µM
- TGI (RPMI-8226 leukemia): > 100 µM
- TGI (UACC-62 melanoma): > 100 µM
- TGI (A498 renal): > 100 µM
- TGI (UACC-257 melanoma): > 100 µM
- TGI (SK-OV-3 ovarian): > 100 µM

SMILES: O/N=C1\CCc2nonc2\C1=N/Nc1ccccc1
- TGI (OVCAR-5 ovarian): > 100 µM
- TGI (SF-295 CNS): > 100 µM
- TGI (NCI-H226 lung): > 100 µM
- TGI (ACHN renal): > 100 µM
- TGI (LOX IMVI melanoma): > 100 µM
- TGI (RPMI-8226 leukemia): > 100 µM
- TGI (UACC-62 melanoma): > 100 µM
- TGI (UACC-257 melanoma): > 100 µM
- TGI (SK-OV-3 ovarian): > 100 µM

SMILES: COc1cc2c(cc1C)NC(=O)/C2=C\c1ccncc1
- TGI (OVCAR-5 ovarian): 29.1 µM
- TGI (SF-295 CNS): 19.1 µM
- TGI (ACHN renal): 20.2 µM
- TGI (UACC-62 melanoma): 21.1 µM
- TGI (UACC-257 melanoma): 26.7 µM
- TGI (SK-OV-3 ovarian): 13.7 µM

SMILES: CC(C)=Nn1cnc(C(=N)C#N)c1N
- TGI (OVCAR-5 ovarian): > 100 µM
- TGI (SF-295 CNS): > 100 µM
- TGI (NCI-H226 lung): > 100 µM
- TGI (ACHN renal): > 100 µM
- TGI (RPMI-8226 leukemia): > 100 µM
- TGI (UACC-62 melanoma): > 100 µM
- TGI (UACC-257 melanoma): > 100 µM
- TGI (SK-OV-3 ovarian): > 100 µM

SMILES: CC1=NN(C(=O)c2ccc(Cl)cc2)C(=O)/C1=C/c1ccc(Cl)cc1
- TGI (OVCAR-5 ovarian): > 100 µM
- TGI (SF-295 CNS): > 100 µM
- TGI (ACHN renal): > 100 µM
- TGI (LOX IMVI melanoma): > 100 µM
- TGI (RPMI-8226 leukemia): > 100 µM
- TGI (UACC-62 melanoma): > 100 µM
- TGI (A498 renal): > 100 µM
- TGI (UACC-257 melanoma): > 100 µM
- TGI (SK-OV-3 ovarian): > 100 µM

SMILES: CCC(=O)NC(OCC1(CC)COC1)(C(F)(F)F)C(F)(F)F
- TGI (OVCAR-5 ovarian): > 100 µM
- TGI (NCI-H226 lung): > 100 µM
- TGI (ACHN renal): > 100 µM
- TGI (LOX IMVI melanoma): > 100 µM
- TGI (RPMI-8226 leukemia): > 100 µM
- TGI (UACC-62 melanoma): > 100 µM
- TGI (A498 renal): > 100 µM
- TGI (UACC-257 melanoma): > 100 µM
- TGI (SK-OV-3 ovarian): > 100 µM

SMILES: COP(=O)(OC)C(NC=O)P(=O)(OC)OC
- TGI (SF-295 CNS): > 100 µM
- TGI (NCI-H226 lung): > 100 µM
- TGI (ACHN renal): > 100 µM
- TGI (LOX IMVI melanoma): > 100 µM
- TGI (RPMI-8226 leukemia): > 100 µM
- TGI (UACC-62 melanoma): > 100 µM
- TGI (A498 renal): > 100 µM
- TGI (SK-OV-3 ovarian): > 100 µM

SMILES: O=C1c2ccccc2-c2nc(-c3ccccc3)cc3c2c1nc1ccccc13
- TGI (OVCAR-5 ovarian): 61.4 µM
- TGI (SF-295 CNS): 27.6 µM
- TGI (NCI-H226 lung): 54.5 µM
- TGI (ACHN renal): 91.5 µM
- TGI (LOX IMVI melanoma): 10 µM
- TGI (RPMI-8226 leukemia): 22 µM
- TGI (UACC-62 melanoma): 9.7 µM
- TGI (UACC-257 melanoma): 30.6 µM
- TGI (SK-OV-3 ovarian): 55.2 µM
